pIC50: −log10 of the molar value.
Key:
[1] = target: T1, Glycogen synthase kinase-3 beta (Homo sapiens, UniProt P49841)
[2] = target: T1, Glycogen synthase kinase-3 beta; remark: listed apart in the source
[3] = target: T1, Glycogen synthase kinase-3 beta; remark: listed apart in the source
Description: Inhibition of full length recombinant human His-tagged GSK3beta expressed in baculovirus expression system using Ser/Thr 9 peptide substrate by Z'-LYTE assay

[4] = target: T1, Glycogen synthase kinase-3 beta; remark: listed apart in the source
Description: Inhibition of GST-tagged GSK3beta (unknown origin) expressed in Escherichia coli BL21-CodonPlus (DE3) by Z'-LYTE assay

T1 sequence (P49841 whole entry): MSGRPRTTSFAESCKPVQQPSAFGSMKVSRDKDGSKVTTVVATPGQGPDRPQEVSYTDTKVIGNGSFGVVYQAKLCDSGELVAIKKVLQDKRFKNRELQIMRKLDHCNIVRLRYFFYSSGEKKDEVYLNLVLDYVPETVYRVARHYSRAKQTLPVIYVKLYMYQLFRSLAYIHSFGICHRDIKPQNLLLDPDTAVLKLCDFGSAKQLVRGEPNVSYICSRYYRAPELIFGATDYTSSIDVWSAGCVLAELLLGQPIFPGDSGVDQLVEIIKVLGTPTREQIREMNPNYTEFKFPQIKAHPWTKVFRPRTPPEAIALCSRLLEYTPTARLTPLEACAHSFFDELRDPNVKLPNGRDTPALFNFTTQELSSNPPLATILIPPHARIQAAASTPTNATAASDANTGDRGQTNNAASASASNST

Work on `[Zn]` yielded a pIC50 [1] of 4.82.
Molecule `N=C1N[C@H]2c3c([nH]c(Br)c3Br)C(=O)C3CCC[C@@]32N1` (stereo not given in full) has a pIC50 [1] of 5.52.
`O=c1[nH]nc2c(NCCc3ccncc3)cc(Cl)cn12` was tested, and the pIC50 [2] was 6.95.
`O=C1NC(=O)C(c2cn(CCC3N=CC=N3)c3ccccc23)=C1c1noc2ccccc12` was tested, and the pIC50 [3] was 9.14.
With `Cn1cc(C2=C(c3nn(CCCN4CCOCC4)c4ncccc34)C(=O)NC2=O)c2ccccc21` the pIC50 [4] was 6.47.

Reference: ChEMBL document CHEMBL4041480, “Natural and synthetic bioactive inhibitors of glycogen synthase kinase” (Eur J Med Chem, 2017)
